US9169241B2, “Quinolinyloxyphenylsulfonamides” (Max-Planck-Gesellschaft Zur Forderung der Wissenschaften …, priority 2009, dated 2015)

Tests used:
Hs578T [1] = test: Wound healing migration assay; format: cell-based; conditions: Homo sapiens, Hs-578T; HS578T cell line; Table Ib
Method: This method mimics cell migration during wound healing in vivo. The basic steps involve creating a “wound” in a cell monolayer, capturing the images at the beginning and at regular intervals during cell migration to close the wound, and comparing the images to quantify the migration rate of the cells. In detail, 150000 cell/24 well have been seeded and allowed to form a monolayer overnight. Subsequently a “wound” or “scratch” has been performed with a 1000 μl pipette tip. The STDV of wound size is normally below 10% at time point t0. The assay was stopped by fixation with 0.05% Crystal violet/20% methanol when control scratches were closed. The assay was terminated between 48 h and 72 h depending on the migration potential of the indicated cell line. The “wounds” were visualized with a Zeiss Axiovert S100 microscope (Carl Zeiss UK, Welwyn Garden City, UK). The tested compounds were used at 12.5 μM, 6.25, 3.125 μM and DMSO control. IC50 values have been calculated as 50% wound size in between t0 and t48 or t72.

Hs578T [2] = test: Matrigel outgrowth assay/branching assay; format: cell-based; conditions: Homo sapiens, Hs-578T; HS578T cell line; Table Ib; read-out: Total branching inhibition in Matrigel HS578T
Method: The Matrigel outgrowth assay is based on the ability of tumor cell to penetrate a solid gel of extracellular matrix proteins mimicking the metastasis formation in vivo. While cells with low invasive potential appear as roundish cell or cell cluster, cells with high invasive potential penetrate the Matrigel and form polymorphic structures. In detail 65 μl of Matrigel matrix (Matrigel™ Matrix, BD Biosciences, Bedford, Mass., USA) with a concentration of 3 mg/ml have been polymerized in 96 well plates for 1 h at 37° C. Subsequently 5000 cell/well were seeded into each well containing cell culture medium and indicated compound with concentrations of 3.125 μM, 1.56 μM and 0.78 μM as well as DMSO control. After 48 h, 72 h and 96 h images of cell were taken on an inverted microscope using a 5× objective (Zeiss Axiovert S100 microscope Carl Zeiss UK, Welwyn Garden City, UK). Only compound concentrations were total branching inhibition was evident were accounted as positive. Method was used as previously described, with some modifications (Thompson E W, et al. Association of increased basement membrane invasiveness with absence of estrogen receptor and expression of vimentin in human breast cancer cell lines. J Cell Physiol 1992; 150:534-44).

Hs578T [3] = test: Cell vitality assay (ATP assay, CellTiter-Glo); format: cell-based; conditions: Homo sapiens, Hs-578T; HS578T cell line, 72 h; Table Ib; read-out: IC50 ATP-Assay HS578T after 72 h
Method: The CellTiter-Glo® Luminescent Cell Viability Assay (Promega Corporation. Madison, Wis., USA) is method a determining the number of viable cells in culture based on quantification of the ATP being present which is an indicator of metabolically active cells was used according to manufacturers protocol, In detail the assay was performed in a 96 well format were 1000 cells/well were incubated with indicated compound at concentration of 12.5 μM, 6.25 μM, 3.125 μM, 1.56 μM, 0.78 μM, 0.39 μM, 0.195 μM as well as DMSO control for 72 h in 100 μl cell culture medium. IC50 values were calculated as 50% of ATP amount compared to DMSO control.
Protocol for the CellTiter-Glo® Luminescent Cell Viability Assay • 1. Prepare opaque-walled multiwell plates with mammalian cells in culture medium, 100 μl per well for 96-well plates • 2. Prepare control wells containing medium without cells to obtain a value for background luminescence. • 3. Add the compound to be tested to experimental wells, and incubate according to culture protocol. • 4. Equilibrate the plate and its contents at room temperature for approximately 30 minutes. • 5. Add a volume of CellTiter-Glo® Reagent (Promega Corporation. Madison, Wis.) equal to the volume of cell culture medium present in each well. • 6. Mix contents for 2 minutes on an orbital shaker to induce cell lysis. • 7. Allow the plate to incubate at room temperature for 10 minutes to stabilize luminescent signal. • 8. Record luminescence on Microplate Luminometer LB96V (Berthold Tchnologies, Bad Wildbad, Germany). An integration time of 0.1 and 1 second per well

SMILES | IC50 (Hs578T [1]) | melting point | IC50 (Hs578T [2]) | IC50 (Hs578T [3])
COc1cc2c(Oc3ccc(NS(=O)(=O)c4ccccc4C(F)(F)F)cc3F)ccnc2cc1OCCCCOC(C)=O [Example 212, Acetic acid 4-{4-[2-fluoro-4-(2-trifluoromethyl-benzenesulfonylamino)-phenoxy]-6-methoxy-quinolin-7-yloxy}-butyl ester] | 12.5 to 50 µM | 143 to 145 °C | 10 to 25 µM | 12.5 to 50 µM
COc1cc2c(Oc3ccc(NS(=O)(=O)c4cc(F)ccc4F)cc3F)ccnc2cc1OCCCCOC(C)=O [Example 211, Acetic acid 4-{4-[4-(2,5-difluoro-benzenesulfonylamino)-2-fluoro-phenoxy]-6-methoxy-quinolin-7-yloxy}-butyl ester] | ≤ 12.5 µM | 165 to 167 °C | 10 to 25 µM | ≤ 12.5 µM
COc1cc2c(Oc3ccc(NS(=O)(=O)c4ccn(C)n4)cc3F)ccnc2cc1OCCCN1CCC(C)CC1 [Example 164, 1-Methyl-1H-pyrazole-3-sulfonic acid (3-fluoro-4-{6-methoxy-7-[3-(4-methyl-piperidin-1-yl)-propoxy]-quinolin-4-yloxy}-phenyl)-amide] | 12.5 to 50 µM | 165 to 166 °C | 10 to 25 µM | ≤ 12.5 µM
COc1cc2c(Oc3cc(NS(=O)(=O)c4ccccc4OC(F)(F)F)ccc3F)ccnc2cc1OCCCN1CCC(C)CC1 [Example 190, N-(4-Fluoro-3-{6-methoxy-7-[3-(4-methyl-piperidin-1-yl)-propoxy]-quinolin-4-yloxy}-phenyl)-2-trifluoromethoxy-benzenesulfonamide] | 12.5 to 50 µM | 80 to 82 °C | 10 to 25 µM | 12.5 to 50 µM
COc1cc2c(Oc3cccc(NS(=O)(=O)c4ccc(Cl)s4)c3)ccnc2cc1OCCCN1CCN(C)CC1 [Example 130, 5-Chloro-thiophene-2-sulfonic acid (3-{6-methoxy-7-[3-(4-methyl-piperazin-1-yl)-propoxy]-quinolin-4-yloxy}-phenyl)-amide] | 12.5 to 50 µM | 162 to 163 °C | ≤ 10 µM | ≤ 12.5 µM
COc1cc2c(Oc3cccc(NS(=O)(=O)c4c(C)noc4C)c3)ccnc2cc1OCCCN1CCN(C)CC1 [Example 138, 3,5-Dimethyl-isoxazole-4-sulfonic acid (3-{6-methoxy-7-[3-(4-methyl-piperazin-1-yl)-propoxy]-quinolin-4-yloxy}-phenyl)-amide] | 12.5 to 50 µM | 200 to 202 °C | 10 to 25 µM | 12.5 to 50 µM

Further lines, with some results ahead:

IC50 (Hs578T [1]) | melting point | SMILES | IC50 (Hs578T [2]) | IC50 (Hs578T [3])
12.5 to 50 µM | 194 to 196 °C | COc1ccc2nccc(Oc3ccc(NS(=O)(=O)C4CC4)cc3F)c2c1 [Example 206, Cyclopropanesulfonic acid [3-fluoro-4-(6-methoxy-quinolin-4-yloxy)-phenyl]-amide] | 10 to 25 µM | 12.5 to 50 µM
≤ 12.5 µM | 164 to 166 °C | COc1cc2c(Oc3cccc(NS(=O)(=O)c4ccccc4OC(F)(F)F)c3)ccnc2cc1OCCCN1CCN(C)CC1 [Example 126, N-(3-{6-Methoxy-7-[3-(4-methyl-piperazin-1-yl)-propoxy]-quinolin-4-yloxy}-phenyl)-2-trifluoromethoxy-benzenesulfonamide] | 10 to 25 µM | ≤ 12.5 µM
≤ 12.5 µM | 171 to 172 °C | COc1cc2c(Oc3cccc(NS(=O)(=O)c4c(F)cccc4F)c3)ccnc2cc1OCCCN1CCN(C)CC1 [Example 125, 2,6-Difluoro-N-(3-{6-methoxy-7-[3-(4-methyl-piperazin-1-yl)-propoxy]-quinolin-4-yloxy}-phenyl)-benzenesulfonamide] | 10 to 25 µM | ≤ 12.5 µM
≤ 12.5 µM | 88 to 90 °C | COc1cc2c(Oc3ccc(NS(=O)(=O)c4c(C)nn(C)c4C)cc3F)ccnc2cc1OCCCN1CCC(C)CC1 [Example 160, 1,3,5-Trimethyl-1H-pyrazole-4-sulfonic acid (3-fluoro-4-{6-methoxy-7-[3-(4-methyl-piperidin-1-yl)-propoxy]-quinolin-4-yloxy}-phenyl)-amide] | 10 to 25 µM | ≤ 12.5 µM
